The text below walks through data of patent publication US10231969B2, “Anti-neoplastic combinations and dosing regimens using CDK4/6 inhibitor compounds to treat RB-positive tumors” (G1 Therapeutics, Inc., priority 2014, dated 2019).

In one series the target is CDK4/CyclinD1 (Homo sapiens, UniProt P11802). Description: CDK4/cyclinD1 kinase assay (Nanosyn, Caliper microfluidic). To be noted: read-out: CDK4/CycD1 IC50. The class given is biochemical. On the procedure:
(§1) Selected compounds disclosed herein were tested in CDK4/cyclinD1, CDK2/CycA and CDK2/cyclinE kinase assays by Nanosyn (Santa Clara, Calif.) to determine their inhibitory effect on these CDKs. The assays were performed using microfluidic kinase detection technology (Caliper Assay Platform). The compounds were tested in 12-point dose-response format in singlicate at Km for ATP. Phosphoacceptor substrate peptide concentration used was 1 μM for all assays and Staurosporine was used as the reference compound for all assays. Specifics of each assay are as described below:
CDK4/CyclinD1: Enzyme concentration: 1 nM; ATP concentration: 200 μM; Incubation time: 10 hr.

Series [1] relates to MCF7 (breast adenocarcinoma—Rb-positive). Description: Cellular proliferation assay (CellTiter-Glo), MCF7. The class given is cell-based. Particulars: Homo sapiens, MCF7, 144 h, six days. The procedure:
(§2) Cellular proliferation assays were further conducted using the following cancer cell lines: MCF7 (breast adenocarcinoma—Rb-positive), ZR-75-1 (breast ductal carcinoma—Rb-positive), H69 (human small cell lung cancer—Rb-negative) cells, or A2058 (human metastatic melanoma cells—Rb-negative). These cells were seeded in Costar (Tewksbury, Mass.) 3093 96 well tissue culture treated white walled/clear bottom plates. Cells were treated with the compounds of Table 1 as nine point dose response dilution series from 10 uM to 1 nM. Cells were exposed to compounds and then cell viability was determined after either four (H69) or six (MCF7, ZR75-1, A2058) days as indicated using the CellTiter-Glo® luminescent cell viability assay (CTG; Promega, Madison, Wis., United States of America) following the manufacturer's recommendations. Plates were read on BioTek (Winooski, Vt.) Syngergy2 multi-mode plate reader. The Relative Light Units (RLU) were plotted as a result of variable molar concentration and data was analyzed using Graphpad (LaJolla, Calif.) Prism 5 statistical software to determine the EC50 for each compound.

Series [2] has as its system HS68 cells (human skin fibroblast cell line (Rb-positive)). Description: G1 arrest (cellular G1 and S-phase) assay. The class given is cell-based. On the procedure: The fraction of cells in G0-G1 DNA cell cycle versus the fraction in S-phase DNA cell cycle was determined using FlowJo 7.2.2 analysis.
The compounds listed in Table 1 were tested for their ability to arrest HS68 cells at the G1 phase of the cell cycle.

Another series deals with T1, CDK2/CyclinE (Homo sapiens, UniProt P24941).
T1 construct: Nanosyn (Santa Clara, Calif.) ran the assay as a service
Put plainly: CDK2/cyclinE kinase assay (Nanosyn, Caliper microfluidic). Particulars: Table 2; for IC50: ATP 100 μM, read-out: CDK2/CycE IC50. It is filed as biochemical. The procedure:
Selected compounds disclosed herein were tested in CDK4/cyclinD1, CDK2/CycA and CDK2/cyclinE kinase assays by Nanosyn (Santa Clara, Calif.) to determine their inhibitory effect on these CDKs. The assays were performed using microfluidic kinase detection technology (Caliper Assay Platform). The compounds were tested in 12-point dose-response format in singlicate at Km for ATP. Phosphoacceptor substrate peptide concentration used was 1 μM for all assays and Staurosporine was used as the reference compound for all assays.

The next series deals with T2, CDK2/CyclinA (Homo sapiens, UniProt P24941).
T2 construct: Nanosyn (Santa Clara, Calif.) ran the assay as a service
Description: CDK2/CycA kinase assay (Nanosyn, Caliper microfluidic). It is filed as biochemical. To be noted: Table 2; for IC50: ATP 50 μM. The procedure:
as §1
CDK2/CyclinA: Enzyme concentration: 0.2 nM; ATP concentration: 50 μM; Incubation time: 3 hr.

For series [3], the system named is A2058 (human metastatic melanoma cells—Rb-negative). Put plainly: Cellular proliferation assay (CellTiter-Glo), A2058. The class given is cell-based. Particulars: A2058, 144 h, six days. The procedure: as §2
Series [4] has as its system H69 (human small cell lung cancer—Rb-negative) cells. Description: Cellular proliferation assay (CellTiter-Glo), H69. The class given is cell-based. Particulars: NCI-H69, 96 h, four days. The procedure: as §2
For series [5], the system named is 456 (395 non-mutant) kinases. Put plainly: DiscoveRx KINOMEscan profiling. It is filed as binding. To be noted: 1000 nM.
Series [6] deals with Rb phosphorylation (Ser780, Ser807/811) in WM2664. Put plainly: Rb phosphorylation western blot, WM2664. It is filed as cell-based. Particulars: WM2664, 300 nM, by 16 hours post exposure. On the procedure: (§3) The CDK4/6-cyclin D complex is essential for progression from G1 to the S-phase of the DNA cell cycle. This complex phosphorylates the retinoblastoma tumor suppressor protein (Rb). […] Samples were lysed and protein was assayed by western blot analysis. Rb phosphorylation was measured at two sites targeted by the CDK4/6-cyclin D complex, Ser780 and Ser807/811 using species specific antibodies.

Series [7] relates to tHS68 (CDK4/6-dependent; Rb-positive). Description: Cell cycle arrest, propidium iodide flow cytometry, tHS68. To be noted: tHS68, 24 hours, highest concentration shown (28% at baseline). The class given is cell-based. An excerpt: To test the ability of CDK4/6 inhibitors to induce a clean G1-arrest in Rb-positive cells, a cell based screening method was used consisting of two CDK4/6-dependent cell lines (tHS68 and WM2664; Rb-positive) and one CDK4/6-independent (A2058; Rb-negative) cell line. […] At the conclusion of the experiment, cells were harvested, fixed, and stained with propidium iodide (a DNA intercalator), which fluoresces strongly red (emission maximum 637 nm) when excited by 488 nm light. Samples were run on Dako Cyan flow cytometer and >10,000 events were collected for each sample. Data were analyzed using FlowJo 2.2 software developed by TreeStar, Inc.

Series [8] relates to bone marrow proliferating cells. Put plainly: EdU incorporation in hematopoietic cells after i.p. dose. It is filed as in vivo, C57BL/6 female mice. Particulars: single i.p. dose 50 mg/kg or 100 mg/kg. On the procedure: At the designated time: 30 min, 1 h, 2 h, 4 h, 6 h, 8 h, 12 h, 18 h, 24 h or 48 h, mice received an injection of 5′-ethynyl-2′-deoxyuridine (EdU). Two hours post EdU injection, mice were sacrificed. As illustrated in FIGS. 12-19, cell lines were isolated and incorporation of EdU was measured. Hematopoietic cell lineages were identified using known cell lineage markers. (See, for example, Challen, et al. “Mouse Hematopoietic Stem Cell Identification and Analysis”, Cytometry A. (2009) 75(1): 14-24).

Series [9] has as its system Rb phosphorylation (Ser780, Ser807/811) in tHS68. Description: Rb phosphorylation western blot, tHS68. The class given is cell-based. To be noted: tHS68, 300 nM, by 16 hours post exposure. The procedure: as §3
Series [10] can be described thus: Peripheral blood CBC on day 14 in MCF7 implant model. It is filed as in vivo, Immunodeficient mice. To be noted: Day 14, 100 mg/kg PO QD. An excerpt: Specific cell counts analyzed were white blood cells (WBC: FIG. 21A), lymphocytes (FIG. 21B), neutrophils (FIG. 21C), monocytes (FIG. 21D), platelets (FIG. 21E), and red blood cells (FIG. 21F).
Series [11] deals with ER+, HER2− locally advanced or metastatic breast cancer. Particulars: post-menopausal women, at time of final PFS analysis; cited from earlier work.
Series [12] relates to ZR-75-1 (breast ductal carcinoma—Rb-positive). Description: Cellular proliferation assay (CellTiter-Glo), ZR-75-1. It is filed as cell-based. To be noted: Homo sapiens, ZR-75-1, 144 h, six days, read-out: ZR75-1 Cellular EC50. On the procedure: as §2

Read-outs that look alike come from different tables or passages of the source.

CDK4/CyclinD1, sequence (P11802 whole entry): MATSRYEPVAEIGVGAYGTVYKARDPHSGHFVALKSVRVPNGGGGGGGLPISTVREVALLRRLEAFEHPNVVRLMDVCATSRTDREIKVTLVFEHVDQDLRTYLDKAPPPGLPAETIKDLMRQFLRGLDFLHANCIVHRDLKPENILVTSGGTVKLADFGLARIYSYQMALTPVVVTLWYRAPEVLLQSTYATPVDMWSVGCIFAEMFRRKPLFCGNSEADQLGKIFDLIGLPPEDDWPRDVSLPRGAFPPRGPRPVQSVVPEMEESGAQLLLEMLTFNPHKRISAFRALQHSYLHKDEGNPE
CDK4/CyclinD1, sequence (P24385 whole entry partner): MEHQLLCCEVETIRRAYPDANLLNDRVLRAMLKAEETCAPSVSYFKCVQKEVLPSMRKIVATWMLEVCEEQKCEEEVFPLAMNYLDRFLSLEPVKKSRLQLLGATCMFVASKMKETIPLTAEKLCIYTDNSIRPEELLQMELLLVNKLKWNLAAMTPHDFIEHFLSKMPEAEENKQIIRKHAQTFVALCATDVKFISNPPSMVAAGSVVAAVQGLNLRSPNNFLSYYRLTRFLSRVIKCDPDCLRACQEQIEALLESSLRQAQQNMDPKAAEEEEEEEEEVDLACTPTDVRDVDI

Regarding `C[C@H]1CN(c2ccc(Nc3ncc4cc5n(c4n3)C3(CCCCC3)CNC5=O)nc2)CCN1CCC(C)(C)C` [M], the IC50 on CDK4/CyclinD1 (Table 2, ATP at Km (200 μM)) came out at 2.3 nM.
Regarding `CC(C)[C@H]1CNC(=O)c2cc3cnc(Nc4ccc(N5CCNCC5)cn4)nc3n21` [UUU], the IC50 at CDK4/CyclinD1 (Table 2, ATP at Km (200 μM)) came out at 18 nM.
Turning to `CN1CCN(C(=O)c2ccc(Cc3ncc4cc5n(c4n3)C3(CCCC3)CNC5=O)nc2)CC1` [BBB], the 50% effective concentration (EC50) was 123 nM in series [1], 230 nM in [2], > 3000 nM in [3] and > 3000 nM in [4]. The IC50 at CDK2/CyclinE came to 187 nM; at CDK2/CyclinA, 85 nM; on CDK4/CyclinD1 (Table 2, ATP at Km (200 μM)), 2.8 nM. Moreover, at CDK2/CyclinE (ratio of IC50s), the “Fold Selectivity (CDK2/CycE/CDK4)” value worked out at 68. Further, on CDK2/CyclinA (ratio of IC50s), the “Fold Selectivity (CDK2/CycA/CDK4)” value amounted to 31.
In the case of `C[C@@H]1CN(c2ccc(Nc3ncc4cc5n(c4n3)C3(CCCCC3)CNC5=O)nc2)CCN1C[C@@H](C)O` [J], the IC50 at CDK4/CyclinD1 (Table 2, ATP at Km (200 μM)) was 0.7 nM.
Turning to `CCN(CC)C1CCN(c2ccc(Nc3ncc4cc5n(c4n3)C3(CCCCC3)CNC5=O)nc2)C1` (stereo not drawn) [QQ], the midpoint of the response in series [2], the EC50, lay at 120 nM.
On to `CCN1[C@H](C)CN(c2ccc(Nc3ncc4cc5n(c4n3)C3(CCCCC3)CNC5=O)nc2)C[C@@H]1C` [FF], for which, at CDK4/CyclinD1 (Table 2, ATP at Km (200 μM)), the IC50 came to 1.2 nM.
With `CN1CCN(c2ccc(Nc3ncc4cc5n(c4n3)C3(CCCCC3)CNC5=O)nc2)CC1` [Compound T], the figures for the “number of 395 non-mutant kinases inhibited” value in [5] (inhibitory threshold of 65%), in series [5] (inhibitory threshold of 90%) and in [5] (inhibitory threshold of 99%) were 92, 31 and 6, respectively. The results for the “share of 395 non-mutant kinases inhibited” value in series [5] (inhibitory threshold of 65%), in series [5] (inhibitory threshold of 90%) and in [5] (inhibitory threshold of 99%) were 23.3%, 7.8% and 1.5%, respectively. Further, the “Rb phosphorylation” value in series [6] and in [9] was “blocks Rb phosphorylation” in each case. Also, the “cells in S-phase” value in series [7] was 6%. Moreover, in series [8], the “EdU incorporation, bone marrow” value is “dose and time dependent reduction and recovery of proliferating cells”.
As for `CCN(CC)C1CCN(c2ccc(Nc3ncc4cc5n(c4n3)C3(CCCC3)CNC5=O)nc2)C1` (stereo not drawn) [UU], in series [2], the concentration for a half-maximal effect (EC50) was determined as 300 nM.
Consider `C[C@@H](O)CN1CCN(c2ccc(Nc3ncc4cc5n(c4n3)C3(CCCCC3)CNC5=O)nc2)CC1` [S], for which the IC50 on CDK4/CyclinD1 (Table 2, ATP at Km (200 μM)) was found to be 1.7 nM.
`CC(C)N1CCN(c2ccc(Nc3ncc4cc5n(c4n3)C3(CCCCC3)CNC5=O)nc2)CC1` [Compound GG]: in series [10], the “lymphocyte count” value is “reduced cell counts”, the “neutrophil count” value is “reduced cell counts”, the “platelet count” value was “reduced cell counts” and the “red blood cell count” value is “reduced cell counts”. Moreover, the “white blood cell count” value in series [10] is reported as “reduced cell counts”. Besides, the IC50 at CDK4/CyclinD1 (Table 3) is 1.06 nM. Moreover, the IC50 at CDK4/CyclinD1 was determined as 1 nM.
As for `N#Cc1ccc(C(c2ccc(C#N)cc2)n2cncn2)cc1` [letrozole], the “median OS” value in [11] is listed as 33.3 months.
In [2], `O=C1NCC2(CCCC2)n2c1cc1cnc(Nc3ccc(N4CCC(N5CCOCC5)CC4)cn3)nc12` [WW] showed a half-maximal effective concentration (EC50) of 400 nM.
Turning to `CCOCCN1CCN(c2ccc(Nc3ncc4cc5n(c4n3)C3(CCCC3)CNC5=O)nc2)CC1` [MMM], the IC50 at CDK4/CyclinD1 (Table 2, ATP at Km (200 μM)) worked out at 3.2 nM.
As to `CC1CN(c2ccc(Nc3ncc4cc5n(c4n3)C3(CCCCC3)CNC5=O)nc2)C[C@@H](C)N1CC1CC1` (stereo partly drawn) [OO], the EC50 was 120 nM in [1]; 95 nM in [2]; 229 nM in [12]; > 3000 nM in series [3]; > 3000 nM in series [4]. Further, the IC50 is 3980 nM at CDK2/CyclinE; 570 nM against CDK2/CyclinA; 9 nM at CDK4/CyclinD1 (Table 2, ATP at Km (200 μM)).
Take `CC1CN(c2ccc(Nc3ncc4cc5n(c4n3)C3(CCCC3)CNC5=O)nc2)CCN1CCC(C)(C)C` (stereo not drawn) [PPP]: the IC50 amounted to 16500 nM on CDK2/CyclinE; 2640 nM on CDK2/CyclinA; 0.8 nM on CDK4/CyclinD1 (Table 2, ATP at Km (200 μM)).
In the case of `CC(C)N1CCN(c2ccc(Nc3ncc4cc5n(c4n3)C3(CCCCC3)CNC5=O)nc2)C[C@H]1C` [L], the IC50 at CDK4/CyclinD1 (Table 2, ATP at Km (200 μM)) was 5.7 nM.
